{
  "source": "patent US20110269838A1",
  "about": "“NOVEL PROCESSES AND PURE POLYMORPHS” (priority 2008, published 2011)",
  "assay": "Polymorphic stability on storage",
  "type": "physicochemical",
  "settings": "kept at 40° C.±2° C. and relative humidity 75%±5% for 6 months; samples prepared in examples 1 to 5",
  "data": [
    {"smiles": "O=C(CCCCCCC(=O)Nc1ccccc1)NO", "note": "[crystalline vorinostat form I, N-hydroxy-N′-phenyl-octanediamide]", "values": [
      {"measurement": "polymorphic stability (conversion over time to other polymorphs)", "value": "no conversion over time to other polymorphs"}
    ]}
  ]
}
